These results are taken from article PMC6588697, “Lugdunin amplifies innate immune responses in the skin in synergy with host- and microbiota-derived factors” (Nature Communications, 2019).

In one series the test system is PBMCs. Briefly: Cytokine release into PBMC supernatant (LEGENDplex / ELISA). The series is classed as cell-based, human. To be noted: 5 h, lugdunin 2 µM or Pam2Cys 100 ng/mL, two technical replicates, Fig 1f. The method, then:
(§1) Fig. 1 Lugdunin sensitizes epithelial cells for innate immune defense. a Primary human keratinocytes (PHKs) were pretreated with S. epidermidis conditioned medium (CM), indicated lugdunin concentrations, or the combination of both for 20 h. Subsequently, cells were infected with S. aureus for 1.5 h followed by cell lysis and determination of colony-forming units (CFUs). Shown is one representative experiment of three independent experiments with six technical replicates ± s.e.m. n.s., not significant. b Dorsal skin of mice was pretreated with S. epidermidis CM, 1.5 µg lugdunin alone or in combination with S. epidermidis CM for 24 h. Subsequently, S. aureus CFUs were determined. Horizontal lines represent the mean of each group ± s.e.m. c PHKs were treated with 2 μM lugdunin or with S. epidermidis CM alone or in combination for 20 h and subsequently expression of indicated antimicrobial peptides (AMPs) (respective protein names in brackets) was analyzed and normalized to actin. Shown is one representative experiment of three independent experiments with two technical replicates ± s.e.m. d PHKs were treated with 2 µM lugdunin or 100 ng/mL Pam2Cys for 5 h and subsequently the concentration of indicated cytokines in the supernatant was analyzed by LEGENDplex^TM (BioLegend). […]
In general terms: An ELISA detects its analyte on a solid surface through an enzyme-linked reagent.

The test system of series [1] is primary human neutrophils, erythrocytes, HL60. The note with it: cited from earlier work. The source says:
Lugdunin represents the founding member of the new class of cyclic thiazolidine-containing peptide antibiotics. […] In our previous work, we have shown that lugdunin treatment led to a strong reduction and even complete eradication of viable S. aure ...

The next series deals with S. aureus. Briefly: S. aureus skin colonization after epicutaneous pretreatment of mouse skin (CFU). The format is in vivo, C57BL/6 WT mice. To be noted: treatment of mouse skin; text to Fig 1b. The method, then: as §1
A further series concerns HTEpCs. As to the kind of experiment: Cytokine release into HTEpC supernatant (LEGENDplex / ELISA). To be noted: 5 h, lugdunin 2 µM or Pam2Cys 100 ng/mL, two technical replicates, Fig 1f. The series is classed as cell-based, human.

Values joined by “and” are separate entries in the source; they are usually repeats but may differ in a detail not shown here. Identical values can stand only once.

Consider Lugdunin, for which the “CXCL8 concentration in supernatant” value was 231.761 and 233.451 in the series on PBMCs; 214.845 and 210.300 with HTEpCs. Moreover, the “lysis of primary human neutrophils, erythrocytes or HL60 (in words)” value in series [1] was “did neither cause lysis”. For the same substance, the “reduction of colonizing S. aureus (in words)” value with S. aureus is “slight, but not significant, reduction”.
